Experimental data reported in US9943519B2, “Pharmaceutical compounds” (F.HOFFMANN-LA ROCHE AG, priority 2006, dated 2018).

What was measured:
Caco-2 cells = assay: Caco-2 permeability; type: in vitro ADME; settings: bidirectional Caco-2 assay
Procedure: Caco-2 cells were seeded onto Millipore Multiscreen plates at 1×10^5 cells/cm^2, and were cultured for 20 days. Assessment of compound permeability was subsequently conducted. The compounds were applied to the apical surface (A) of cell monolayers and compound permeation into the basolateral (B) compartment was measured. This was performed in the reverse direction (B−A) to investigate active transport. A permeability coefficient value, Papp, for each compound, a measure of the rate of permeation of the compound across the membrane, was calculated. Compounds were grouped into low (Papp</=[…]) or high (Papp>/=[…]) absorption potential based on comparison with control compounds with established human absorption.
For assessment of a compound's ability to undergo active efflux, the ratio of basolateral (B) to apical (A) transport compared with A to B was determined. Values of B−A/A−B>/=1.0 indicated the occurrence of active cellular efflux. All of the compounds tested through the Caco-2 permeability screen had Papp values >/=[…].

[1] = target: human PI3K isoform beta (p110 beta) (Homo sapiens, UniProt P42338); assay: p110 isoform selectivity scintillation proximity assay (beta); type: biochemical; settings: ratio of IC50 values, SPA, purified human PI3K isoforms
Procedure: (§1) Binding of compounds of the invention from above Tables 1a and 1b to purified preparations of p110 isoforms alpha, beta, delta, and gamma was measured by a Scintillation Proximity Assay (SPA) to determine binding activity (IC50 μMol) and selectivity of binding of beta, delta, and gamma isoforms relative to alpha (Example 8). These values are expressed in Table 2.
(§2) The ability of representative compounds from Tables 1a and 1b to inhibit the lipid kinase activity of purified preparations of human PI3K isoforms alpha, beta, delta, and gamma was determined by a radiometric scintillation proximity assay (SPA, GE Healthcare, Amersham Biosciences). Concentration dependent inhibition at 50% (IC50 μMol) was determined for all four isoforms […] and fold potency over beta, delta, and gamma relative to alpha was calculated for a selection of compounds in Table 2. Each compound has a p110 alpha IC50<1 μMol.

[2] = target: human PI3K isoform gamma (p110 gamma) (Homo sapiens, UniProt P48736); assay: p110 isoform selectivity scintillation proximity assay (gamma); type: biochemical; settings: ratio of IC50 values, SPA, purified human PI3K isoforms
Procedure: as §1, §2

[3] = target: human PI3K isoform delta (p110 delta) (Homo sapiens, UniProt O00329); assay: p110 isoform selectivity scintillation proximity assay (delta); type: biochemical; settings: ratio of IC50 values, SPA, purified human PI3K isoforms
Procedure: as §1, §2

human PI3K isoform beta (p110 beta), sequence (P42338 whole entry, canonical isoform): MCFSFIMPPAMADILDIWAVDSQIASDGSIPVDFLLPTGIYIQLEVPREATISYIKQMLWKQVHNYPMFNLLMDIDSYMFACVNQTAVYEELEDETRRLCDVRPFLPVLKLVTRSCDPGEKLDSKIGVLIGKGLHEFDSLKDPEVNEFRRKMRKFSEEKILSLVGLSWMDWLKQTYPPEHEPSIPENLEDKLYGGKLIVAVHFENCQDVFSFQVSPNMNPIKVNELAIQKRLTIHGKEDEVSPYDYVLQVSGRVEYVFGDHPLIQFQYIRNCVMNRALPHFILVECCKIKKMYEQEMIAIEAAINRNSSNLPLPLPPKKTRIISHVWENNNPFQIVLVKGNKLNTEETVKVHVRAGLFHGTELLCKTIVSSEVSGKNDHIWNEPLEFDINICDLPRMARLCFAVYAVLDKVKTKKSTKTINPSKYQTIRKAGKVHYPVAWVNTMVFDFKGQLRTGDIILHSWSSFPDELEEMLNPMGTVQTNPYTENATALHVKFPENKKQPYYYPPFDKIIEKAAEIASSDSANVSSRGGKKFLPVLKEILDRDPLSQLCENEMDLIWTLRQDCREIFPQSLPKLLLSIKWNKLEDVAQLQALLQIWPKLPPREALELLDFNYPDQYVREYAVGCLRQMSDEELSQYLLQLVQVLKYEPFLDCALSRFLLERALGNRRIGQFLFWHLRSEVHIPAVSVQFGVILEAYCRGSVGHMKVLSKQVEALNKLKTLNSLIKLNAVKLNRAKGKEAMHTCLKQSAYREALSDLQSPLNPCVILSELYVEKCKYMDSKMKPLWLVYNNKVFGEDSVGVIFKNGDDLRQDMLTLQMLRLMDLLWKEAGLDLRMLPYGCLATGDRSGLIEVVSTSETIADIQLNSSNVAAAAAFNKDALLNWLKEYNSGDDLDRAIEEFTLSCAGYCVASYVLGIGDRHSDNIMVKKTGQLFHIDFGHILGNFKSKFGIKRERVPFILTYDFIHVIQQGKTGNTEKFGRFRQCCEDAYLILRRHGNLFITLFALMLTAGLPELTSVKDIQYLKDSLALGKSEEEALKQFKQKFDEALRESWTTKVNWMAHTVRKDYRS
human PI3K isoform beta (p110 beta), sequence (P27986 whole entry partner, canonical isoform): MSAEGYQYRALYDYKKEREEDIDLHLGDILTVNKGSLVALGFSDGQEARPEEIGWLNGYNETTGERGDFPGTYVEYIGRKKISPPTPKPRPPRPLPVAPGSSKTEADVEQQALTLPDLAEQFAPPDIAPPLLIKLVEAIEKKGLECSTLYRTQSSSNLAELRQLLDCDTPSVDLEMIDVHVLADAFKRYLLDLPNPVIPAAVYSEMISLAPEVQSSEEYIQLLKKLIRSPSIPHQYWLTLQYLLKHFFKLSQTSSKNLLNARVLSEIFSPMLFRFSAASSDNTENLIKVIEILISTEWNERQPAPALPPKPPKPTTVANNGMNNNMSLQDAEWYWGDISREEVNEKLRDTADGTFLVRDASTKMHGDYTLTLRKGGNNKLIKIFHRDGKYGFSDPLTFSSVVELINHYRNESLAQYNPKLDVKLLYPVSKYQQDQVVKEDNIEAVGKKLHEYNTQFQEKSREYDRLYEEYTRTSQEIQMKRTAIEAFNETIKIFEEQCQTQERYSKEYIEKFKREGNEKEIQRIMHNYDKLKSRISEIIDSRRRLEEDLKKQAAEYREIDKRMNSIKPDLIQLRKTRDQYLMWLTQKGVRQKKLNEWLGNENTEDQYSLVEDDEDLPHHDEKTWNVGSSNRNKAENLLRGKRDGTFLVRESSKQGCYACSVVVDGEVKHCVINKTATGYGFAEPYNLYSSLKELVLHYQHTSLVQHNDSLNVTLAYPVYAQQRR
human PI3K isoform delta (p110 delta), sequence (O00329 whole entry, canonical isoform): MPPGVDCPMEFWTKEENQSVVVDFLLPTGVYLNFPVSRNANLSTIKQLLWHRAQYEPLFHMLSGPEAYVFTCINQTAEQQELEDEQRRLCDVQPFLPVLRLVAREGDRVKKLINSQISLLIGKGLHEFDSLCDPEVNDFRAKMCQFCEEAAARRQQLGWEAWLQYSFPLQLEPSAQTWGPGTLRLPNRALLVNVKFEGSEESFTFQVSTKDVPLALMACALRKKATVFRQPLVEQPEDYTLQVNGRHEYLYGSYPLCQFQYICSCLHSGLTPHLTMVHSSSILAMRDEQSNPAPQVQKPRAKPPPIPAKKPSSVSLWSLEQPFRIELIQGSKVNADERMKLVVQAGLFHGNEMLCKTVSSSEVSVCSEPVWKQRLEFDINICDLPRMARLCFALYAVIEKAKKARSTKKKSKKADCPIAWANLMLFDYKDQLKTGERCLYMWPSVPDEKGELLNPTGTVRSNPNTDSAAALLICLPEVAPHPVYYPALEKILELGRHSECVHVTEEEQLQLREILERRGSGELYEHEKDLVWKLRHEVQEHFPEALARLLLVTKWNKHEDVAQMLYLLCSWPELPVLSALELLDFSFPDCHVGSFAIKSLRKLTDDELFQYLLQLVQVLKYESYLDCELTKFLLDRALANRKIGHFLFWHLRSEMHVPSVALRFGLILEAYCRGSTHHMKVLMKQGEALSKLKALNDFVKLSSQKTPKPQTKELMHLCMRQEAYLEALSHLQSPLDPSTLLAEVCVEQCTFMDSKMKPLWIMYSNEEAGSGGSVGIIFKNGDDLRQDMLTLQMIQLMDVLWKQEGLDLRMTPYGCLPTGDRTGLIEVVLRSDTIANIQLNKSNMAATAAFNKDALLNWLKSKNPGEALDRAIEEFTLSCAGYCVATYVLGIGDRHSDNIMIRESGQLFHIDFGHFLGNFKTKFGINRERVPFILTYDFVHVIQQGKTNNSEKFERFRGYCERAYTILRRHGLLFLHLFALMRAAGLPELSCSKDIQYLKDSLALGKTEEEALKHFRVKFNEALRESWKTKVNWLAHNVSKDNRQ
human PI3K isoform delta (p110 delta), sequence (P27986 whole entry partner, canonical isoform): as the sequence (P27986 whole entry partner, canonical isoform) above
human PI3K isoform gamma (p110 gamma), sequence (P48736 whole entry, canonical isoform): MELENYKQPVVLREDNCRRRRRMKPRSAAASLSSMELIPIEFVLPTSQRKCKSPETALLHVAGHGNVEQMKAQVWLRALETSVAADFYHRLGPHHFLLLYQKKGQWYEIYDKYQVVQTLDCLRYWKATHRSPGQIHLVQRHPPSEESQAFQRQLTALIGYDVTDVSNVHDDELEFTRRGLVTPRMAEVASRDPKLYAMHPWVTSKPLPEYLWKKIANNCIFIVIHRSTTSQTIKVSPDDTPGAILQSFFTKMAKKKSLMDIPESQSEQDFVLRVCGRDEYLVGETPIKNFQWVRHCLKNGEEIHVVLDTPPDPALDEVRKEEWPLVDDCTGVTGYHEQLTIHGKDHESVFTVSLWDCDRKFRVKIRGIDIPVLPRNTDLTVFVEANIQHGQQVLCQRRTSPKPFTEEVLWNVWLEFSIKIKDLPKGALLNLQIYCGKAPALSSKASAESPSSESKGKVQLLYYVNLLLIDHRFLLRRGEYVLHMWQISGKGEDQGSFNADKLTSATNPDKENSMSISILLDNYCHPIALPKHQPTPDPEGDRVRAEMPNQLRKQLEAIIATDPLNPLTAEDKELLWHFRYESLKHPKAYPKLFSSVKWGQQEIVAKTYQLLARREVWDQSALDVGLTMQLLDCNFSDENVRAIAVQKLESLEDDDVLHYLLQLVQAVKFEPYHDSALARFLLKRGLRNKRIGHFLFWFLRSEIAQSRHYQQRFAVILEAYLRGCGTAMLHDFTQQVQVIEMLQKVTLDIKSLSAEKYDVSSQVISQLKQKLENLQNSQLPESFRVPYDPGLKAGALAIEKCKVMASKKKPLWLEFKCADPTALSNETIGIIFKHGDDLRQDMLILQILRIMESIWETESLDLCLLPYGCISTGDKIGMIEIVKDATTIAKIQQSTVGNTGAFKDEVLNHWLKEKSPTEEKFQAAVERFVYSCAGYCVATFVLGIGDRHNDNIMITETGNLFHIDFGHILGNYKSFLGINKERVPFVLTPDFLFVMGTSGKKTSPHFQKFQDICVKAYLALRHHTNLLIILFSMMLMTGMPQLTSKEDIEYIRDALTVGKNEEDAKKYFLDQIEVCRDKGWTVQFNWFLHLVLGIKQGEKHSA

SMILES: CN1CCN(Cc2cc3nc(-c4cccc(O)c4)nc(N4CCOCC4)c3s2)CC1 [PI540]
- B−A/A−B asymmetry index (Caco-2 cells): less than 1.0

SMILES: CS(=O)(=O)N1CCN(Cc2cc3nc(-c4cncc5ccccc45)nc(N4CCOCC4)c3s2)CC1 [Compound 90, 4-[6-(4-Methanesulfonyl-piperazin-1-ylmethyl)-4-morpholin-4-yl-thieno[3,2-d]pyrimidin-2-yl]-isoquinoline]
- alpha/beta (fold potency over beta relative to alpha) [1]: >10 fold
- alpha/gamma (fold potency over gamma relative to alpha) [2]: >10 fold
- alpha/delta (fold potency over delta relative to alpha) [3]: <10 fold

SMILES: CN(C)S(=O)(=O)C1CCN(Cc2cc3nc(-c4cccc5[nH]ncc45)nc(N4CCOCC4)c3s2)CC1 [Compound 27, 2-(1H-indazol-4-yl)-6-((4-N,N-dimethylaminosulfonylpiperidin-1-yl)methyl)-4-morpholinothieno[3,2-d]pyrimidine]
- alpha/beta (fold potency over beta relative to alpha) [1]: >10 fold
- alpha/gamma (fold potency over gamma relative to alpha) [2]: >10 fold
- alpha/delta (fold potency over delta relative to alpha) [3]: <10 fold

SMILES: CS(=O)(=O)N1CCN(Cc2cc3nc(-c4cccc5[nH]cnc45)nc(N4CCOCC4)c3s2)CC1 [Compound 139]
- alpha/beta (fold potency over beta relative to alpha) [1]: <10 fold
- alpha/gamma (fold potency over gamma relative to alpha) [2]: <10 fold
- alpha/delta (fold potency over delta relative to alpha) [3]: <10 fold

SMILES: Cc1c(CN2CCC(S(C)(=O)=O)CC2)sc2c(N3CCOCC3)nc(-c3cccc4[nH]ncc34)nc12 [Compound 23, 2-(1H-indazol-4-yl)-7-methyl-6-((4-(methylsulfonyl)piperidin-1-yl)methyl)-4-morpholinothieno[3,2-d]pyrimidine]
- alpha/beta (fold potency over beta relative to alpha) [1]: >10 fold
- alpha/gamma (fold potency over gamma relative to alpha) [2]: >10 fold
- alpha/delta (fold potency over delta relative to alpha) [3]: <10 fold

SMILES: O=S(=O)(N1CCOCC1)N1CCN(Cc2cc3nc(-c4cccc5[nH]ncc45)nc(N4CCOCC4)c3s2)CC1 [Compound 28, 2-(1H-indazol-4-yl)-6-((4-N-morpholinosulfonylpiperazin-1-yl)methyl)-4-morpholinothieno[3,2-d]pyrimidine]
- alpha/beta (fold potency over beta relative to alpha) [1]: >10 fold
- alpha/gamma (fold potency over gamma relative to alpha) [2]: >10 fold
- alpha/delta (fold potency over delta relative to alpha) [3]: <10 fold

SMILES: CS(=O)(=O)N1CCN(Cc2cc3nc(-c4cnc5[nH]cnc5c4)nc(N4CCOCC4)c3s2)CC1 [Compound 144]
- alpha/beta (fold potency over beta relative to alpha) [1]: <10 fold
- alpha/gamma (fold potency over gamma relative to alpha) [2]: >10 fold
- alpha/delta (fold potency over delta relative to alpha) [3]: <10 fold

SMILES: Cc1c(CN2CCN(S(C)(=O)=O)CC2)sc2c(N3CCOCC3)nc(-c3cccc4[nH]ncc34)nc12 [Compound 29, 2-(1H-indazol-4-yl)-7-methyl-6-((4-(methylsulfonyl)piperazin-1-yl)methyl)-4-morpholinothieno[3,2-d]pyrimidine]
- alpha/beta (fold potency over beta relative to alpha) [1]: >10 fold
- alpha/gamma (fold potency over gamma relative to alpha) [2]: >10 fold
- alpha/delta (fold potency over delta relative to alpha) [3]: <10 fold

SMILES: CS(=O)(=O)N1CCN(Cc2cc3c(N4CCOCC4)nc(-c4cnc5[nH]ccc5c4)nc3s2)CC1 [Compound 140]
- alpha/beta (fold potency over beta relative to alpha) [1]: >10 fold
- alpha/gamma (fold potency over gamma relative to alpha) [2]: >10 fold
- alpha/delta (fold potency over delta relative to alpha) [3]: >10 fold

SMILES: CS(=O)(=O)N1CCN(Cc2cc3nc(-c4cnc5[nH]ccc5c4)nc(N4CCOCC4)c3o2)CC1 [Compound 142]
- alpha/beta (fold potency over beta relative to alpha) [1]: >10 fold
- alpha/gamma (fold potency over gamma relative to alpha) [2]: >10 fold
- alpha/delta (fold potency over delta relative to alpha) [3]: <10 fold
